# Source: PubChem BioAssay (NCI)
#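 Results reflect a 48-hour exposure of cells in 96-well plates to compound at five concentrations. The concentration for 50% growth inhibition is given as GI50. TGI marks complete inhibition of growth.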
# Assays:
# Assay in all cases: growth of human tumour cells (NCI), 48 h
# NCI-H226 lung = system: NCI-H226 lung
# SW-620 colon = system: SW-620 colon
# M14 melanoma = system: M14 melanoma
# SNB-75 CNS = system: SNB-75 CNS
# NCI-H522 lung = system: NCI-H522 lung
# SF-295 CNS = system: SF-295 CNS
# MCF7 breast = system: MCF7 breast
# HCC-2998 colon = system: HCC-2998 colon
# IGROV1 ovarian = system: IGROV1 ovarian
# HOP-62 NSCLC = system: HOP-62 NSCLC
# BT-549 breast = system: BT-549 breast
# CAKI-1 renal = system: CAKI-1 renal
# SK-MEL-28 melanoma = system: SK-MEL-28 melanoma
# PC-3 prostate = system: PC-3 prostate
# OVCAR-4 ovarian = system: OVCAR-4 ovarian
# SF-268 CNS = system: SF-268 CNS
# RXF 393 renal = system: RXF 393 renal
# HCT-116 colon = system: HCT-116 colon
# SK-OV-3 ovarian = system: SK-OV-3 ovarian
# SR leukemia = system: SR leukemia
# NCI-H460 lung = system: NCI-H460 lung
# A498 renal = system: A498 renal
# SK-MEL-5 melanoma = system: SK-MEL-5 melanoma
# MDA-MB-435 = system: MDA-MB-435
# K-562 leukemia = system: K-562 leukemia
# HOP-92 NSCLC = system: HOP-92 NSCLC
# COLO 205 colon = system: COLO 205 colon
# MOLT-4 leukemia = system: MOLT-4 leukemia
# OVCAR-5 ovarian = system: OVCAR-5 ovarian
smiles,measurement,setting,value
CN1CCN(Cc2ccc(NC(=O)c3cncc(C#Cc4cnc5ccc(OC6CCOCC6)nn45)c3)cc2C(F)(F)F)CC1,GI50,NCI-H226 lung,24.1 nM
same,TGI,NCI-H226 lung,762 nM
same,GI50,SW-620 colon,61.3 nM
same,TGI,SW-620 colon,332 nM
same,GI50,M14 melanoma,49.3 nM
same,TGI,M14 melanoma,154 nM
same,GI50,SNB-75 CNS,17.8 nM
same,TGI,SNB-75 CNS,209 nM
same,GI50,NCI-H522 lung,88 nM
same,TGI,NCI-H522 lung,182 nM
same,GI50,SF-295 CNS,145 nM
same,TGI,SF-295 CNS,1560 nM
same,GI50,MCF7 breast,37.6 nM
same,TGI,MCF7 breast,415 nM
same,GI50,HCC-2998 colon,149 nM
same,TGI,HCC-2998 colon,457 nM
same,GI50,IGROV1 ovarian,56.2 nM
same,TGI,IGROV1 ovarian,503 nM
same,GI50,HOP-62 NSCLC,165 nM
same,TGI,HOP-62 NSCLC,953 nM
same,GI50,BT-549 breast,537 nM
same,TGI,BT-549 breast,1510 nM
same,GI50,CAKI-1 renal,43.7 nM
same,TGI,CAKI-1 renal,252 nM
same,GI50,SK-MEL-28 melanoma,256 nM
same,TGI,SK-MEL-28 melanoma,1050 nM
same,GI50,PC-3 prostate,144 nM
same,TGI,PC-3 prostate,1120 nM
same,GI50,OVCAR-4 ovarian,151 nM
same,TGI,OVCAR-4 ovarian,1190 nM
same,GI50,SF-268 CNS,142 nM
same,TGI,SF-268 CNS,687 nM
same,GI50,RXF 393 renal,96.5 nM
same,TGI,RXF 393 renal,288 nM
same,GI50,HCT-116 colon,37.5 nM
same,TGI,HCT-116 colon,228 nM
same,GI50,SK-OV-3 ovarian,316 nM
same,TGI,SK-OV-3 ovarian,1160 nM
same,GI50,SR leukemia,37.8 nM
same,TGI,SR leukemia,332 nM
same,GI50,NCI-H460 lung,67.4 nM
same,TGI,NCI-H460 lung,618 nM
same,GI50,A498 renal,246 nM
same,TGI,A498 renal,797 nM
same,GI50,SK-MEL-5 melanoma,596 nM
same,TGI,SK-MEL-5 melanoma,1350 nM
same,GI50,MDA-MB-435,61.7 nM
same,TGI,MDA-MB-435,603 nM
same,GI50,K-562 leukemia,5 nM
same,TGI,K-562 leukemia,702 nM
same,GI50,HOP-92 NSCLC,9.44 nM
same,TGI,HOP-92 NSCLC,65.7 nM
same,GI50,COLO 205 colon,95.3 nM
same,TGI,COLO 205 colon,302 nM
same,GI50,MOLT-4 leukemia,36.4 nM
same,TGI,MOLT-4 leukemia,638 nM
same,GI50,OVCAR-5 ovarian,257 nM
same,TGI,OVCAR-5 ovarian,1580 nM
